{"source": "paper PMC11887451", "about": "“Leveraging Immunogenic Cell Death to Enhance the Immune Response against Malignant Pleural Mesothelioma Tumors” (Journal of the American Chemical Society, 2025)", "origin": "cited, not measured here", "tested_on": "hepatocellular carcinoma tumors", "set-up": "method as in PMID 38261008, PMID 36827091", "conditions": "cited from earlier work"}
{"compound": "CCn1cc[n+](CC)[c]1[Au-][C]#CCOC(=O)[C@@]1(C)CC[C@]2(C)CC[C@]3(C)C(=CC(=O)[C@@H]4[C@@]5(C)CC[C@H](OC(=O)CCCCC[P+](c6ccccc6)(c6ccccc6)c6ccccc6)C(C)(C)[C@@H]5CC[C@]43C)[C@@H]2C1.[Br-]", "note": "[Au4]", "values": [{"measurement": "tumor-free time of vaccinated mice", "value": "more than 30 days"}]}
